# Laboratory results from ChEMBL document CHEMBL1156243.
# Active and inactive are the calls of the source. The rule behind the calls is not given here.
# Test: Binding affinity to amyloid beta (1 to 42) fibrils by change in fluorescence at 100 uM after 10 mins
row,SMILES,Activity
1,O=C1C(Cl)=C(Cl)C(=O)C(Cl)=C1Cl,inactive
2,COc1cccc(C=O)c1O,inactive
3,O=C(c1ccccc1)c1ccccc1,inactive
4,O=S1(=O)OC(c2ccc(O)cc2)(c2ccc(O)cc2)c2ccccc21,inactive
5,CN(C)[C@@H]1C(O)=C(C(N)=O)C(=O)[C@@]2(O)C(O)=C3C(=O)c4c(O)cccc4[C@@](C)(O)[C@H]3C[C@@H]12,inactive
6,COc1cc(/C=C/C(=O)NCCCCNC(=O)/C=C/c2ccc(O)c(OC)c2)ccc1O,inactive
7,O=C(/C=C/c1ccccc1)c1ccccc1,inactive
8,COc1cc(/C=C/C(=O)O)ccc1O,Active
9,O=Cc1c[nH]c2ccccc12,inactive
10,CN(C)c1ccc(N=Nc2ccccc2)cc1,inactive
11,COc1ccc(C(=O)c2cc(OC)cc(OC)c2)cc1,inactive
12,CN(C)c1ccc(N=Nc2ccccc2C(=O)O)cc1,inactive
13,Nc1ccc(/N=N/c2ccc(-c3ccc(/N=N/c4c(S(=O)(=O)O)cc5cc(S(=O)(=O)O)c(/N=N/c6ccccc6)c(O)c5c4N)cc3)cc2)c(N)c1,inactive
14,COc1cc(/C=C/C(=O)c2cccc(N)c2)ccc1O,inactive
15,Nc1c(/N=N/c2ccc(-c3ccc(/N=N/c4cc(S(=O)(=O)O)c5ccccc5c4N)cc3)cc2)cc(S(=O)(=O)O)c2ccccc12,Active
16,COc1ccc(/C=C/C(=O)CC(=O)/C=C/c2ccc(OC)c(OC)c2)cc1OC,inactive
17,Nc1c2ccccc2nc2ccccc12,Active
18,COc1ccc(/C=C/C(=O)c2ccccc2)cc1,inactive
19,Oc1cc(O)c2c(c1)O[C@H](c1ccc(O)c(O)c1)[C@H](O)C2,inactive
20,O=C(/C=C/c1cccc(O)c1)c1ccccc1,inactive

row,SMILES,Activity
1,COc1cc(-c2ccc(/N=N/c3ccc4c(S(=O)(=O)O)cc(S(=O)(=O)O)c(N)c4c3O)c(OC)c2)ccc1/N=N/c1ccc2c(S(=O)(=O)O)cc(S(=O)(=O)O)c(N)c2c1O,inactive
2,COc1cc(/C=C/C(=O)NCCNC(=O)/C=C/c2ccc(O)c(OC)c2)ccc1O,inactive
3,O=C(c1ccc(O)cc1)c1ccc(O)cc1,inactive
4,O=C1C=CC(=O)c2c(O)cccc21,inactive
5,COc1ccc(/C=C/c2cccc(/C=C/c3ccc(OC)c(OC)c3)c2)cc1OC,Active
6,Cc1ccc2ccc3ccc(C)nc3c2n1,Active
7,CCN(CC)c1ccc2c(-c3ccccc3C(C)=O)c3ccc(=[N+](CC)CC)cc-3oc2c1,Active
8,O=C(c1ccccc1O)c1ccccc1O,inactive
9,COc1cc(/C=C/C(=O)NCc2cccc(CNC(=O)/C=C/c3ccc(O)c(OC)c3)c2)ccc1O,inactive
10,O=c1cc(-c2ccc(O)cc2)oc2cc(O)cc(O)c12,inactive
11,NCCc1c[nH]c2ccccc12,Active
12,O=S(=O)(O)c1cc(S(=O)(=O)O)c2c(/N=N/c3ccccc3)c(O)ccc2c1,inactive
13,O=c1c(O)c(-c2ccc(O)cc2)oc2cc(O)cc(O)c12,inactive
14,CC(=O)c1ccccc1,inactive
15,O=c1oc2c(O)c(O)cc3c(=O)oc4c(O)c(O)cc1c4c23,inactive
16,O=C(c1ccccc1)c1ccc(O)c(O)c1O,inactive
17,O=C(O)c1ccccc1O,Active
18,O=c1c(O)c(-c2cc(O)c(O)c(O)c2)oc2cc(O)cc(O)c12,inactive
19,O=C(O[C@@H]1Cc2c(O)cc(O)cc2O[C@@H]1c1cc(O)c(O)c(O)c1)c1cc(O)c(O)c(O)c1,inactive
20,COc1ccc(/C=C/c2ccc(/C=C/c3ccc(OC)c(OCc4ccccc4)c3)c(Br)c2)cc1OCc1ccccc1,Active

# Test: Binding affinity to amyloid beta (1 to 42) oligomers by change in fluorescence at 100 uM after 10 mins
row,SMILES,Activity
1,O=C1C(Cl)=C(Cl)C(=O)C(Cl)=C1Cl,inactive
2,COc1cccc(C=O)c1O,inactive
3,O=C(c1ccccc1)c1ccccc1,inactive
4,O=S1(=O)OC(c2ccc(O)cc2)(c2ccc(O)cc2)c2ccccc21,inactive
5,CN(C)[C@@H]1C(O)=C(C(N)=O)C(=O)[C@@]2(O)C(O)=C3C(=O)c4c(O)cccc4[C@@](C)(O)[C@H]3C[C@@H]12,inactive
6,COc1cc(/C=C/C(=O)NCCCCNC(=O)/C=C/c2ccc(O)c(OC)c2)ccc1O,inactive
7,O=C(/C=C/c1ccccc1)c1ccccc1,inactive
8,COc1cc(/C=C/C(=O)O)ccc1O,Active
9,O=Cc1c[nH]c2ccccc12,inactive
10,CN(C)c1ccc(N=Nc2ccccc2)cc1,inactive
11,COc1ccc(C(=O)c2cc(OC)cc(OC)c2)cc1,inactive
12,CN(C)c1ccc(N=Nc2ccccc2C(=O)O)cc1,inactive
13,Nc1ccc(/N=N/c2ccc(-c3ccc(/N=N/c4c(S(=O)(=O)O)cc5cc(S(=O)(=O)O)c(/N=N/c6ccccc6)c(O)c5c4N)cc3)cc2)c(N)c1,inactive
14,COc1cc(/C=C/C(=O)c2cccc(N)c2)ccc1O,inactive
15,Nc1c(/N=N/c2ccc(-c3ccc(/N=N/c4cc(S(=O)(=O)O)c5ccccc5c4N)cc3)cc2)cc(S(=O)(=O)O)c2ccccc12,Active
16,COc1ccc(/C=C/C(=O)CC(=O)/C=C/c2ccc(OC)c(OC)c2)cc1OC,inactive
17,Nc1c2ccccc2nc2ccccc12,Active
18,COc1ccc(/C=C/C(=O)c2ccccc2)cc1,inactive
19,Oc1cc(O)c2c(c1)O[C@H](c1ccc(O)c(O)c1)[C@H](O)C2,inactive
20,O=C(/C=C/c1cccc(O)c1)c1ccccc1,inactive

row,SMILES,Activity
1,COc1cc(-c2ccc(/N=N/c3ccc4c(S(=O)(=O)O)cc(S(=O)(=O)O)c(N)c4c3O)c(OC)c2)ccc1/N=N/c1ccc2c(S(=O)(=O)O)cc(S(=O)(=O)O)c(N)c2c1O,inactive
2,COc1cc(/C=C/C(=O)NCCNC(=O)/C=C/c2ccc(O)c(OC)c2)ccc1O,inactive
3,O=C(c1ccc(O)cc1)c1ccc(O)cc1,inactive
4,O=C1C=CC(=O)c2c(O)cccc21,inactive
5,COc1ccc(/C=C/c2cccc(/C=C/c3ccc(OC)c(OC)c3)c2)cc1OC,Active
6,Cc1ccc2ccc3ccc(C)nc3c2n1,Active
7,CCN(CC)c1ccc2c(-c3ccccc3C(C)=O)c3ccc(=[N+](CC)CC)cc-3oc2c1,Active
8,O=C(c1ccccc1O)c1ccccc1O,inactive
9,COc1cc(/C=C/C(=O)NCc2cccc(CNC(=O)/C=C/c3ccc(O)c(OC)c3)c2)ccc1O,inactive
10,O=c1cc(-c2ccc(O)cc2)oc2cc(O)cc(O)c12,inactive
11,NCCc1c[nH]c2ccccc12,Active
12,O=S(=O)(O)c1cc(S(=O)(=O)O)c2c(/N=N/c3ccccc3)c(O)ccc2c1,inactive
13,O=c1c(O)c(-c2ccc(O)cc2)oc2cc(O)cc(O)c12,inactive
14,CC(=O)c1ccccc1,inactive
15,O=c1oc2c(O)c(O)cc3c(=O)oc4c(O)c(O)cc1c4c23,inactive
16,O=C(c1ccccc1)c1ccc(O)c(O)c1O,inactive
17,O=C(O)c1ccccc1O,Active
18,O=c1c(O)c(-c2cc(O)c(O)c(O)c2)oc2cc(O)cc(O)c12,inactive
19,O=C(O[C@@H]1Cc2c(O)cc(O)cc2O[C@@H]1c1cc(O)c(O)c(O)c1)c1cc(O)c(O)c(O)c1,inactive
20,COc1ccc(/C=C/c2ccc(/C=C/c3ccc(OC)c(OCc4ccccc4)c3)c(Br)c2)cc1OCc1ccccc1,Active
